The record followed here is US20180282279A1, “Pantothenamide Analogues” (Radboud Universitair Medisch Centrum, priority 2014, published 2018).

Data set [1] deals with P. falciparum gametocytes. The data set is described as follows: microbe, parasite or virus in culture. The format is cell-based, Plasmodium falciparum. The note with it: for IC50: 72 hour incubation, read-out: Gametocyte viability (pLDH) IC50; for effect on gametocyte viability (pLDH activity): FIG. 4A; for extent of inhibition of gametocyte viability: compared with reference compound DHA. The procedure:
Compounds were tested for their ability to affect the viability of gametocytes, the sexually committed blood stages of P. falciparum that underlie transmission to the mosquito vector. To this end, two different assays were performed. The first assay monitored pLDH activity as a measure of viability of gametocytes (J Antimicrob Chemother. 2013 September; 68(9):2048-58). The second assay monitored the ability of gametocytes to form a female gamete by detection of the gamete-specific marker Pfs25. Plasmodium falciparum NF54 parasites were cultured in RPMI1640 medium supplemented with 367 μM hypoxanthine, 25 mM HEPES, 25 mM sodiumbicarbonate and 10% human type A serum in an automated large-scale culture system as described before (Transactions of the Royal Society of Tropical Medicine and Hygiene, 1982. 76: p. 812-818). Cultures were treated with 50 mM N-acetyl-D-glucosamine from day 4 till day 9 to kill asexual parasites. On day 11 gametocytes were isolated by discontinuous 63% Percoll gradient centrifugation. Compounds were diluted in DMSO and subsequently in culture medium to reach a DMSO concentration of 0.2%. To measure the effect of compounds of pLDH activity, gametocytes were seeded at a density of 3.5×10^4 gametocytes per well in a black 384 well plate in 30 μl of culture medium, and 30 μl of diluted compound was added. Following a 72 hour incubation at 37° C., 98% humidity, 93% N2, 4% CO2 and 3% O2, gametocyte viability was measured by a modified plasmodium lactate dehydrogenase assay by using resazurin as a substrate as previously described (Nature, 2013. 504(7479): p. 248-53). Assays were performed in quadruplicate (two different plates with two different gametocyte batches) and all plates included controls MIN (1 μM DHA), MAX (0.1% DMSO) and a serial dilution of reference compound dihydroartemisinin (DHA).

The test system of data set [2] is P. falciparum gametocytes. The data set is described as follows: Gametocyte female gametogenesis capacity assay (Pfs25 AlphaLISA). It is filed as cell-based. To be noted: Plasmodium falciparum, 72 hours incubation. The procedure: To monitor compound effects on the ability of a gametocyte to form a female gamete, day 11 (stage IV) gametocytes were seeded at a density of 4×10^5 gametocytes per well in a V-bottom plate in 50 μl culture medium. 50 μl of diluted compound was added to the gametocytes (0.1% DMSO final concentration) and plates were incubated for 72 hours at 37° C., 98% humidity, 93% N2, 4% CO2 and 3% O2. Subsequently, gametogenesis was induced by adding xanthurenic acid to a final concentration of 40 μM and plates were incubated for 16 hours at 20° C. Gametes were detected in a homogeneous proximity immunoassay on basis of Pfs25 expression by use of AlphaLISA technology (Perkin Elmer). All steps were performed at 20° C. Gametes were washed twice with PBS, lysed for 15 min in 10 μl 10 mM Tris pH 8.0/1% laurylsarcosyl/1 mM phenylmethanesulfonyl fluoride and combined with 10 μl 5 nM biotinylated mouse anti-Pfs25 monoclonal antibody 32F6244 in a white 384 well optiplate (Perkin Elmer). After 1 hour incubation 15 μl of 33 μg/ml acceptorbeads coated with mouse anti-Pfs25 monoclonal antibody 32F81 were added. After 1 hour incubation, 15 μl 33 μg/ml Streptavidin-conjugated donorbeads were added. Finally, after 1 hour incubation luminescence signals were monitored at the 615 nm emission wavelength following excitation at 680 nm using a fluorometer (Biotek Synergy 2). All compounds were tested in duplicate (24 hr) or triplicate (1 and 72 hr). Controls included MIN (0.1 μM epoxomicin) and MAX (0.1% DMSO). Data were analyzed by logistic regression using the formula: Y=Bottom+(Top−Bottom)/(1+10̂((Log IC50−X)*HillSlope)) and a least squares method to find the best fit.

Data set [3] has as its system Plasmodium falciparum NF54 parasites. Put plainly: P. falciparum asexual blood stage replication assay (SYBR Green). It is filed as cell-based. To be noted: NF54, 10% human serum, 72 incubation. The procedure:
Compounds were tested on their ability to inhibit replication of the human malaria parasite Plasmodium falciparum. To this end, Plasmodium falciparum NF54 parasites were cultured in RPMI1640 medium supplemented with 367 μM hypoxanthine, 25 mM HEPES, 25 mM sodiumbicarbonate and 10% human type A serum in an automated large-scale culture system as described before (Transactions of the Royal Society of Tropical Medicine and Hygiene, 1982. 76: p. 812-818). Compounds were diluted in DMSO and subsequently in culture medium to reach a DMSO concentration of 0.2%. 50 μl of diluted compound was transferred to a black 96 well plate. A culture of P. falciparum strain NF54 malaria parasites was diluted to a parasitaemia of 0.5% and a hematocrit of 3%. 50 μl of this diluted culture was added to each well in the 96 well plate._The outermost wells of the plate were filled with sterile water to prevent evaporation. The established antimalarial dihydroartemisinin (DHA) in DMSO acted as a positive control (MIN signal), and 0.1% DMSO acted as a negative control (MAX signal). The plates were incubated for 72 at 37° C., 3% 02, 5% CO2, 93% N2. Changes in parasite replication relative to the controls were monitored using the DNA-marker SYBR Green as described previously (Antimicrob Agents Chemother 48:1803-6). Data were analyzed by logistic regression using the formula: Y=Bottom+(Top-Bottom)/(1+10̂((Log IC50−X)*HillSlope)) and a least squares method to find the best fit.
Using similar methods, IC50 values were determined for a variety of inverted pantothenamides, as listed in table 1 (see section: ‘Detailed description of the invention’)

Data set [4] deals with P. falciparum asexual blood stage parasites. The data set is described as follows: Asexual replication assay in competition with pantothenate. It is filed as cell-based, Plasmodium falciparum. The note with it: log dose ratio −1 vs log pantothenate concentration. How it is done: FIG. 3: Competition between pantothenic acid and inverted-amide pantothenamide. Asexual replication assays were performed in combinations of pantothenic acid (PA) and CXP18.6-017 (A), CXP18.6-026 (B) and CXP18.6-052 (C). The relative number of parasites was determined by a Sybrgreen DNA detection method. Data are expressed relative to the MAX (0.1% DMSO) and MIN (10 μM DHA) controls. Error bars indicate standard deviations from two independent observations. D) S child regression analysis of combinations of CXP18.6-052 and pantothenic acid.
To study their interaction with pantothenate-dependent pathways, asexual replication assays were performed with CXP18.6-017, CXP18.6-026 and CXP18.6-052 in the presence of increasing amounts pantothenate. When combining a pantothenamide analogue and pantothenate in the same well the conditions were otherwise similar to the single compound assays described above, however the final DMSO concentration was 0.2%, which was also adjusted for the positive and negative controls.

Where [5] appears, read: Table 3, read-out: Gametocyte gametogenesis capacity (Pfs25) IC50.
Where [6] appears, read: FIG. 4B, read-out: female gametogenesis capacity of gametocytes IC50.

Each structure is given as a SMILES string.

The IC50 is the concentration that gives 50% inhibition. On to `CC(C)(CO)[C@@H](O)C(=O)NCCNC(=O)CCc1ccccc1` [CXP18.6-006], for which the half-maximal inhibitory concentration (IC50) in data set [1] (Plasmodium falciparum) was above 10000 nM; in data set [2] (setting [5]) it was 478 nM; in data set [3], 0.12 µM.

For `Cc1ccc(CCC(=O)NCCNC(=O)[C@H](O)C(C)(C)CO)cc1` [CXP18.6-026], the “effect on gametocyte viability (pLDH activity)” value (from here on “effect on gametocyte viability”) in data set [1] is given as “dose dependently reduced gametocyte viability”. Also, the IC50 in data set [1] (Plasmodium falciparum) was determined as 170 nM; in data set [2] (setting [6]), 13 nM; in data set [2] (setting [5]) it was 13 nM; in data set [3], 0.16 µM. The “extent of inhibition of gametocyte viability” value in data set [1] is recorded as “to the same extent as the reference compound DHA”. Moreover, the “Schild regression analysis with pantothenate” value (shortened to “Schild regression analysis”) in data set [4] is recorded as “did not reveal a linear correlation”.

As to `CC(C)(CO)[C@@H](O)C(=O)NCCNC(=O)CCc1ccccc1F` [CXP18.6-017], in data set [1], the “effect on gametocyte viability” value is “dose dependently reduced gametocyte viability”. In addition, the IC50 amounted to 100 nM in data set [1] (Plasmodium falciparum), 37 nM in data set [2] (setting [6]), 36 nM in data set [2] (setting [5]) and 0.022 µM in data set [3]. In addition, the “extent of inhibition of gametocyte viability” value in data set [1] is “to the same extent as the reference compound DHA”. The “Schild regression analysis” value in data set [4] is on record as “did not reveal a linear correlation”.

As to `CC(C)(CO)[C@@H](O)C(=O)NCCNC(=O)CCc1cccnc1` [CXP18.6-052], the “effect on gametocyte viability” value in data set [1] is reported as “dose dependently reduced gametocyte viability”. Also, in data set [1] (Plasmodium falciparum, 72 h), the “maximum inhibition of gametocyte viability” value is around 50%. In addition, in data set [4], the “Schild regression analysis” value is “competitive antagonism”. Also, the IC50 was determined as 1970 nM in data set [2] (setting [6]) and 0.008 µM in data set [3].
